The test system of assay [1] is ATF4. The assay can be described thus: ATF4 expression inhibition assay (ATF4 5'UTR luciferase reporter, thapsigargin-stressed). The class given is cell-based. The note with it: Homo sapiens, HEK-293T, read-out: ATF4 inhibition. The method, then:
The ATF4 reporter was prepared by fusing the human full length 5′UTR of ATF4 (NCBI Accession No. BC022088.2) upstream of the firefly luciferase coding sequence lacking the initiator methionine. The fused sequence was cloned into pLenti-EF1a-C-Myc-DDK-IRES-Puro cloning vector (Origen #PS100085) using standard methods.
HEK293T cells carrying the ATF4 luciferase reporter were plated on 96-well plates (Nunc) at 10,000 cells per well. Cells were treated two days after seeding with 100 nM thapsigargin (Tg) (Sigma-Aldrich #T9033) in the presence of different concentrations of selected compounds ranging from 0.1 nM to 10 μM. Cells without treatment or cells treated with Tg alone were used as controls. Assay plates containing cells were incubated for 3 hours at 37° C.
Luciferase reactions were performed using Luciferase Assay System (Promega #E1501) as specified by the manufacturer. Luminescence was read with an integration time of 1 s and a gain of 110 using a Cytation-5 multi-mode microplate reader (BioTek).

In assay [2] the test system is Chinese hamster ovary (CHO) cells. The assay can be described thus: Protein synthesis assay (puromycin incorporation, Western blot). The class given is cell-based. The following applies: Cricetulus griseus, read-out: % Protein synthesis relative to untreated (1 μM test compound). On the procedure:
Chinese hamster ovary (CHO) cells were maintained at 37° C. and 5% CO2 in Dulbecco's Modified Eagle's Media (DMEM) supplemented with 10% fetal bovine serum, 2 mM L-glutamine, 100 U/ml penicillin, and 100 μg/ml streptomycin. After reaching 80% of confluence, cells were detached and seeded on 6 well plates in complete media, allowed to recover overnight and treated for 2 hours with 1 μM of the test compound (to assess protein synthesis levels in unstressed condition), or for 2 hours with 300 nM Tg in the presence of 1 μM of the test compound (to assess the recovery of protein synthesis in a stressed condition). Cells with Tg alone were used as controls.
After the 2 hours treatments, media were replaced by adding 10 μg/ml puromycin (Sigma Aldrich #P8833) in complete media for 30 min. Media were removed and cells were lysed with SDS-PAGE lysis buffer. Lysates were transferred to 1.5 ml tubes and sonicated for 3 min and total protein amount were quantified using BCA Protein Assay Kit (Pierce). Equal amount of protein (30 μg) was loaded on SDS-PAGE gels.
A HRP-conjugated secondary antibody (Rockland) was employed to detect immune-reactive bands using enhanced chemiluminescence (ECL Western Blotting Substrate, Pierce). Quantification of protein bands was done by densitometry using ImageJ software.
The percentage levels were normalized to the media alone condition, which correspond to 100% protein synthesis. […]
(In general: In western blotting, separated proteins are transferred to a membrane and probed.)

The mark [3] stands for this setting: HEK293T cells carrying ATF4 luciferase reporter, 100 nM thapsigargin, 3 hours.
Setting [4] is: unstressed CHO cells (without Tg), 1 μM test compound, 2 hours, media alone = 100%.

SMILES strings stand for the structures. Where two headings read alike, the source gives them in different places.

Turning to `O=C(N[C@H]1CC[C@H](c2nnc(COc3ccc(Cl)cc3)o2)CC1)c1cc2cc(Cl)ccc2o1` [Compound 10, trans-5-chloro-N-(4-(5-((4-chlorophenoxy)methyl)-1,3,4-oxadiazol-2-yl)cyclohexyl)benzofuran-2-carboxamide], in assay [1] (setting [3]), the IC50 is under 10 nM. Moreover, in assay [2] (setting [4]), the activity at 1 µM came out at 165%.
Consider `O=C(N[C@H]1CC[C@H](c2nnc(COc3ccc(Cl)cc3)o2)CC1)c1ccc2cc(Cl)ccc2n1` [Compound 9, trans-6-chloro-N-(4-(5-((4-chlorophenoxy)methyl)-1,3,4-oxadiazol-2-yl)cyclohexyl)quinoline-2-carboxamide], for which the IC50 in assay [1] (setting [3]) lay within 10 to 100 nM. Besides, the activity at 1 µM in assay [2] (setting [4]) worked out at 204%.
For `O=C(Nc1ccc2cc(Cl)ccc2n1)[C@H]1CC[C@H](c2cnn(-c3ccc(Cl)cc3)c2)CC1` [Compound 250, trans-4-(1-(4-chlorophenyl)-1H-pyrazol-4-yl)-N-(6-chloroquinolin-2-yl)cyclohexanecarboxamide], in that order: 10 to 100 nM and 25%.
For `O=C(Nc1ccc2cc(Cl)ccc2n1)[C@H]1CC[C@H](c2nnc([C@H]3CC[C@H](C(F)(F)F)CC3)o2)CC1` [Compound 30, trans-N-(6-chloroquinolin-2-yl)-4-(5-(trans-4-(trifluoromethyl)cyclohexyl)-1,3,4-oxadiazol-2-yl)cyclohexanecarboxamide], in that order: 100 to 1000 nM and 16.7%.
Take `O=C(Nc1ccc2cc(Cl)ccc2n1)[C@H]1CC[C@H](c2nnc(-c3ccc(Cl)cc3)o2)CC1` [Compound 19, trans-4-(5-(4-chlorophenyl)-1,3,4-oxadiazol-2-yl)-N-(6-chloroquinolin-2-yl)cyclohexane-1-carboxamide]: in assay [1] (3 h), the IC50 was 10 to 100 nM. In addition, the activity at 1 µM in assay [2] (CHO, 2 h) amounted to 100%.
`O=C(Nc1ccc2cc(Cl)ccc2n1)[C@H]1CC[C@H](c2nnc([C@H]3C[C@@H](OC(F)(F)F)C3)o2)CC1` [Compound 48, trans-N-(6-chloroquinolin-2-yl)-4-(5-(cis-3-(trifluoromethoxy)cyclobutyl)-1,3,4-oxadiazol-2-yl)cyclohexanecarboxamide]: the IC50 in assay [1] (setting [3]) fell in the range of 10 to 100 nM. Moreover, the activity at 1 µM in assay [2] (setting [4]) was found to be 22.4%.
For `O=C(N[C@H]1CC[C@H](c2nnc(-c3ccc(Cl)cc3)o2)CC1)c1cc2cc(Cl)ccc2o1` [Compound 6, trans-5-chloro-N-(4-(5-(4-chlorophenyl)-1,3,4-oxadiazol-2-yl)cyclohexyl)benzofuran-2-carboxamide], in that order: under 10 nM and 111%.
For `O=C(Nc1ccc2cc(Cl)ccc2n1)[C@H]1CC[C@H](c2nnc(-c3ccc4cc(Cl)ccc4n3)o2)CC1` [Compound 46, trans-N-(6-chloroquinolin-2-yl)-4-(5-(6-chloroquinolin-2-yl)-1,3,4-oxadiazol-2-yl)cyclohexanecarboxamide], in that order: 10 to 100 nM and 11.8%.
Take `O=C(NCc1ccc2cc(Cl)ccc2n1)[C@H]1CC[C@H](c2nnc(-c3ccc(Cl)cc3)o2)CC1` [Compound 47, trans-4-(5-(4-chlorophenyl)-1,3,4-oxadiazol-2-yl)-N-((6-chloroquinolin-2-yl)methyl)cyclohexanecarboxamide]: the IC50 in assay [1] (setting [3]) was over 1000 nM. Moreover, the activity at 1 µM in assay [2] (setting [4]) was 2%.
The like results for `O=C(Nc1ccc2cc(Cl)ccc2n1)[C@H]1CC[C@H](c2nnc(C3CNc4cc(Cl)ccc4O3)o2)CC1` (stereo partly drawn) [Compound 45, trans-4-(5-(6-chloro-3,4-dihydro-2H-benzo[b][1,4]oxazin-2-yl)-1,3,4-oxadiazol-2-yl)-N-(6-chloroquinolin-2-yl)cyclohexanecarboxamide] were, in that order, 10 to 100 nM and 81.8%.
For `O=C(COc1ccc(Cl)c(F)c1)NN1CCC(c2nnc(COc3ccc(Cl)cc3)o2)CC1` [Compound 240, 2-(4-chloro-3-fluorophenoxy)-N-(4-(5-((4-chlorophenoxy)methyl)-1,3,4-oxadiazol-2-yl)piperidin-1-yl)acetamide], in that order: under 10 nM and 42.3%.
For `O=C(Nc1ccc2cc(Cl)ccc2n1)[C@H]1CC[C@H](c2nnc(C3CCC(C(F)(F)F)CC3)o2)CC1` (stereo partly drawn) [Compound 29, trans-N-(6-chloroquinolin-2-yl)-4-(5-(4-(trifluoromethyl)cyclohexyl)-1,3,4-oxadiazol-2-yl)cyclohexanecarboxamide], in that order: over 1000 nM and 11.5%.
As for `O=C(N[C@H]1CC[C@H](c2nnc(COc3ccc(Cl)cc3)o2)CC1)C1CNc2cc(Cl)ccc2O1` (stereo partly drawn) [Compound 11, trans-6-chloro-N-(4-(5-((4-chlorophenoxy)methyl)-1,3,4-oxadiazol-2-yl)cyclohexyl)-3,4-dihydro-2H-benzo[b][1,4]oxazine-2-carboxamide], the IC50 in assay [1] (setting [3]) is 10 to 100 nM. Further, in assay [2] (setting [4]), the activity at 1 µM came out at 140%.
`O=C(Nc1ccc2cc(Cl)ccc2n1)[C@H]1CC[C@H](c2nc(-c3ccc(Cl)cc3)cs2)CC1` [Compound 33, trans-4-(4-(4-chlorophenyl)thiazol-2-yl)-N-(6-chloroquinolin-2-yl)cyclohexanecarboxamide]: the IC50 in assay [1] (3 h) was over 1000 nM. Also, the activity at 1 µM in assay [2] (CHO, 2 h) came out at 11.4%.
As to `O=C(N[C@H]1CC[C@H](c2nnc(COc3ccc(Cl)cc3)o2)CC1)c1cnc(C(F)F)cn1` [Compound 16, trans-N-(4-(5-((4-chlorophenoxy)methyl)-1,3,4-oxadiazol-2-yl)cyclohexyl)-5-(difluoromethyl)pyrazine-2-carboxamide], the IC50 in assay [1] (setting [3]) was over 1000 nM. Besides, the activity at 1 µM in assay [2] (setting [4]) turned out to be 115%.
In the case of `O=C(COc1ccc(Cl)c(F)c1)N[C@H]1CC[C@H](c2nnc(COc3ccc(Cl)c(F)c3)o2)CC1` [Compound 13, trans-2-(4-chloro-3-fluorophenoxy)-N-(4-(5-((4-chloro-3-fluorophenoxy)methyl)-1,3,4-oxadiazol-2-yl)cyclohexyl)acetamide], in assay [1] (setting [3]), the IC50 was under 10 nM. For the same compound, in assay [2] (setting [4]), the activity at 1 µM came to 134%.
As to `O=C(NC[C@H]1CC[C@H](c2nnc(-c3ccc(Cl)cc3)o2)CC1)c1ccc2cc(Cl)ccc2n1` [Compound 1, trans-6-chloro-N-((4-(5-(4-chlorophenyl)-1,3,4-oxadiazol-2-yl)cyclohexyl)methyl)quinoline-2-carboxamide], the IC50 in assay [1] (3 h) was over 1000 nM. In addition, the activity at 1 µM in assay [2] (CHO, 2 h) was 158%.

Source of the values: US20230083885A1, “MODULATORS OF INTEGRATED STRESS RESPONSE PATHWAY” (Praxis Biotech LLC, priority 2021, published 2023).
